Results from PubChem BioAssay AID2060610 (Molecular Pharmacology Branch, DTP, NCI, 2025).

System: 616215-338-R-J1-PDC complex spheroids, viability % test/control
Assay: Anticancer human tumor 616215-338-R-J1-PDC patient-derived colon adenocarcinoma cell line growth inhibition [CLK]
Details: for IC50: curve of first compound; for viability, T/C: stronger effect = lower value
Outline: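 Multi-cell-type spheroids combined patient-derived tumor cells with HUVEC endothelial cells and human mesenchymal stem cells. Paired agents were dosed in half-log steps down from about clinical Cmax, or from 10 microM where Cmax was unknown.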

[1] = second compound 0.0316 µM, first compound 0.00316 µM
[2] = second compound 0.0316 µM, first compound 0.01 µM
[3] = second compound 0.0316 µM, first compound 0.0316 µM
[4] = second compound 0.0316 µM, first compound 0.1 µM
[5] = second compound 0.0316 µM, first compound 0.316 µM
[6] = second compound 0.0316 µM, first compound 1 µM
[7] = second compound 0.1 µM, first compound 0.00316 µM
[8] = second compound 0.1 µM, first compound 0.01 µM
[9] = second compound 0.1 µM, first compound 0.0316 µM
[10] = second compound 0.1 µM, first compound 0.1 µM
[11] = second compound 0.1 µM, first compound 0.316 µM
[12] = second compound 0.1 µM, first compound 1 µM
[13] = second compound 0.316 µM, first compound 0.00316 µM
[14] = second compound 0.316 µM, first compound 0.01 µM
[15] = second compound 0.316 µM, first compound 0.0316 µM
[16] = second compound 0.316 µM, first compound 0.1 µM
[17] = second compound 0.316 µM, first compound 0.316 µM
[18] = second compound 0.316 µM, first compound 1 µM
[19] = second compound 1 µM, first compound 0.00316 µM
[20] = second compound 1 µM, first compound 0.01 µM
[21] = second compound 1 µM, first compound 0.0316 µM
[22] = second compound 1 µM, first compound 0.1 µM
[23] = second compound 1 µM, first compound 0.316 µM
[24] = second compound 1 µM, first compound 1 µM
[25] = second compound 3.16 µM, first compound 0.00316 µM
[26] = second compound 3.16 µM, first compound 0.01 µM
[27] = second compound 3.16 µM, first compound 0.0316 µM
[28] = second compound 3.16 µM, first compound 0.1 µM
[29] = second compound 3.16 µM, first compound 0.316 µM
[30] = second compound 3.16 µM, first compound 1 µM
[31] = second compound 10 µM, first compound 0.00316 µM
[32] = second compound 10 µM, first compound 0.01 µM
[33] = second compound 10 µM, first compound 0.0316 µM
[34] = second compound 10 µM, first compound 0.1 µM
[35] = second compound 10 µM, first compound 0.316 µM
[36] = second compound 10 µM, first compound 1 µM
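Also: spheroids exposed to agents for 7 days.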
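For viability, T/C in this document: 100% = DMSO vehicle wells.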

Structure (SMILES): CCN1CCN(Cc2ccc(Nc3ncc(F)c(-c4cc(F)c5nc(C)n(C(C)C)c5c4)n3)nc2)CC1 + CNC(=O)c1ccc(Nc2nc(OC3CCCC3)c3c(-c4ccc5nc(C)oc5c4)c[nH]c3n2)c(OC)c1
- IC50 (second compound 0.0316 µM): 928 nM
- IC50 (second compound 0.1 µM): 285 nM
- IC50 (second compound 0.316 µM): < 3.16 nM
- IC50 (second compound 1 µM): 136 nM
- IC50 (second compound 3.16 µM): 357 nM
- IC50 (second compound 10 µM): < 3.16 nM
- viability, T/C [1]: 83%
- viability, T/C [2]: 93.2%
- viability, T/C [3]: 95.5%
- viability, T/C [4]: 137%
- viability, T/C [5]: 130%
- viability, T/C [6]: 46%
- viability, T/C [7]: 51.6%
- viability, T/C [8]: 55%
- viability, T/C [9]: 56.3%
- viability, T/C [10]: 58%
- viability, T/C [11]: 48.1%
- viability, T/C [12]: 26.7%
- viability, T/C [13]: 45.5%
- viability, T/C [14]: 49.2%
- viability, T/C [15]: 53.5%
- viability, T/C [16]: 50.3%
- viability, T/C [17]: 47.9%
- viability, T/C [18]: 28.2%
- viability, T/C [19]: 51.8%
- viability, T/C [20]: 49.1%
- viability, T/C [21]: 59.6%
- viability, T/C [22]: 55%
- viability, T/C [23]: 39.5%
- viability, T/C [24]: 28.6%
- viability, T/C [25]: 47.4%
- viability, T/C [26]: 50.3%
- viability, T/C [27]: 53%
- viability, T/C [28]: 54.1%
- viability, T/C [29]: 61.2%
- viability, T/C [30]: 22.7%
- viability, T/C [31]: 41.6%
- viability, T/C [32]: 46.8%
- viability, T/C [33]: 58.5%
- viability, T/C [34]: 52.2%
- viability, T/C [35]: 46%
- viability, T/C [36]: 29.2%

Structure (SMILES): COc1c(OCCCN2CCOCC2)ccc2c3n(c(=NC(=O)c4cnc(N)nc4)nc12)CCN3 + CNC(=O)c1ccc(Nc2nc(OC3CCCC3)c3c(-c4ccc5nc(C)oc5c4)c[nH]c3n2)c(OC)c1
- IC50 (second compound 0.0316 µM): 208 nM
- IC50 (second compound 0.1 µM): 45.9 nM
- IC50 (second compound 0.316 µM): < 3.16 nM
- IC50 (second compound 1 µM): < 3.16 nM
- IC50 (second compound 3.16 µM): < 3.16 nM
- IC50 (second compound 10 µM): < 3.16 nM
- viability, T/C [1]: 92.4%
- viability, T/C [2]: 94.7%
- viability, T/C [3]: 115%
- viability, T/C [4]: 69.1%
- viability, T/C [5]: 45.7%
- viability, T/C [6]: 32.3%
- viability, T/C [7]: 62.4%
- viability, T/C [8]: 61.5%
- viability, T/C [9]: 57.7%
- viability, T/C [10]: 34%
- viability, T/C [11]: 26.6%
- viability, T/C [12]: 26.1%
- viability, T/C [13]: 41.4%
- viability, T/C [14]: 39.3%
- viability, T/C [15]: 26.5%
- viability, T/C [16]: 20.6%
- viability, T/C [17]: 14.5%
- viability, T/C [18]: 12.5%
- viability, T/C [19]: 32.9%
- viability, T/C [20]: 30.1%
- viability, T/C [21]: 21.2%
- viability, T/C [22]: 13.1%
- viability, T/C [23]: 9.29%
- viability, T/C [24]: 9.49%
- viability, T/C [25]: 35.6%
- viability, T/C [26]: 31.1%
- viability, T/C [27]: 21.4%
- viability, T/C [28]: 12%
- viability, T/C [29]: 9.19%
- viability, T/C [30]: 8.84%
- viability, T/C [31]: 35.3%
- viability, T/C [32]: 29.4%
- viability, T/C [33]: 19.2%
- viability, T/C [34]: 11.1%
- viability, T/C [35]: 10.4%
- viability, T/C [36]: 7.75%
